Measured values as given in publication PMC7411605, “Xanthine Oxidase Inhibition and Anti-LDL Oxidation by Prenylated Isoflavones from Flemingia philippinensis Root” (Molecules, 2020).
Where “and” joins values, the source holds several entries; their conditions need not be identical. Equal values may be shown once. Read-outs that look alike come from different tables or passages of the source.

How the values were obtained:
[1] = biological target: T1, Bovine milk xanthine oxidase (XO, EC 1.17.3.2) (Bos taurus, UniProt P80457); test: Xanthine oxidase activity (uric acid formation at 295 nm); format: biochemical; conditions: sample concentration which leads to 50% xanthine oxidase activity loss; xanthine substrate, pH 7.5, 37 °C; read-out: IC50, xanthine oxidase inhibition (converted)
T1 construct: Xanthine oxidase from bovine milk (EC 1.17.3.2); purchased Sigma Aldrich Co., (St. Louis, MO, USA); host or cells: bovine milk
T1 sequence (P80457 whole entry): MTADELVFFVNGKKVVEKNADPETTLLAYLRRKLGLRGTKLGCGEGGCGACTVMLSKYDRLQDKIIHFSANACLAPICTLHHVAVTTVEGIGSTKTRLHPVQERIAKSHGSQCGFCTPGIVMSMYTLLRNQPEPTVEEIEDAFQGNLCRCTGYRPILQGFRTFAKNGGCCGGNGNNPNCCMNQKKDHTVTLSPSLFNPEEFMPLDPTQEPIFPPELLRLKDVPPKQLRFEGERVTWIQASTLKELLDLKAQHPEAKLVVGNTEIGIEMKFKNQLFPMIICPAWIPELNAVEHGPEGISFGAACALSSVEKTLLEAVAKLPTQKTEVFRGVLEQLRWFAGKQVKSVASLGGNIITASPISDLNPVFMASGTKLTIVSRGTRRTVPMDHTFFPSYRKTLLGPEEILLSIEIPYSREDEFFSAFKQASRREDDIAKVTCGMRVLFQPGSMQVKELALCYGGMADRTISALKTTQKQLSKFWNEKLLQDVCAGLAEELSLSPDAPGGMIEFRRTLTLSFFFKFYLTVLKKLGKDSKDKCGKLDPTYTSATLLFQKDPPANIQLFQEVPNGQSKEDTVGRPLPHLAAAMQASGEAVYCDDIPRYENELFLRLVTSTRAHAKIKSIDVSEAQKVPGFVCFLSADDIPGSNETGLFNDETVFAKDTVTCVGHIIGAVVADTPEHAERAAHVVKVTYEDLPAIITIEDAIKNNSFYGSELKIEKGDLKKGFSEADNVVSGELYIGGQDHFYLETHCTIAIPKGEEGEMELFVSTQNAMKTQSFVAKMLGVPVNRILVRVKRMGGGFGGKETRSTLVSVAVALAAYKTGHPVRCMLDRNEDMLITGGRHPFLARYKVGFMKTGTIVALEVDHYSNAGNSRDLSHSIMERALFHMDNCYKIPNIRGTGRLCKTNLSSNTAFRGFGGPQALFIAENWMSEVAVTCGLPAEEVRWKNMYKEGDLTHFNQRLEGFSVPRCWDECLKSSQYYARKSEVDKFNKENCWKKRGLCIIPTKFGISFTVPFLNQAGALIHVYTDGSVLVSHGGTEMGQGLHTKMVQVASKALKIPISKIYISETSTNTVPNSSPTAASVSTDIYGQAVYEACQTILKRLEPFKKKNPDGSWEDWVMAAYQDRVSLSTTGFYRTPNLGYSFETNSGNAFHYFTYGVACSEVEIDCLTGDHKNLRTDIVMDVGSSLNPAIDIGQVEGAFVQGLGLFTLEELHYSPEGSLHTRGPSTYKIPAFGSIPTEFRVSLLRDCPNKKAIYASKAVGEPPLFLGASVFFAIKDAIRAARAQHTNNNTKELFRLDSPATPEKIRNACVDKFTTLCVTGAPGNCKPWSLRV
Procedure: The half-maximal inhibitory concentrations (IC50) were calculated according to the enzyme inhibition rate (%) derived from the change of uric acid formation in comparison with the concentration of inhibitors. The inhibition rate derived from the non-linear regression fitting to Equation (1). Inhibition rate (%) = 100 × [(rate of control reaction − rate of inhibitor reaction)/rate of control reaction](1)

[2] = biological target: T1, Bovine milk xanthine oxidase (XO, EC 1.17.3.2); test: Xanthine oxidase inhibition kinetics (Lineweaver–Burk and Dixon plots); format: biochemical; conditions: for Inhibition Mode: Lineweaver–Burk plots, xanthine 15, 30, 60 μM; for KIS: binding of inhibitor to enzyme-substrate complex, secondary plot of intercept
Procedure: The inhibition mode and inhibitory constants were determined by Lineweaver–Burk and Dixon plots. For obtaining double reciprocal plots, was measured the reaction absorbance of the enzyme, inhibited by different concentrations of inhibitors, with three concentrations of xanthine (15, 30, and 60 μM) at 295 nm and 37 °C. The corresponding kinetic parameters, namely the Michaelis-Menten constant (Km), maximal velocity (Vmax), inhibitory constant (Ki), and dissociation constant of a binding site for the inhibitor to either free enzyme or the enzyme-substrate complex (KI and KIS) were determined by Equations (2)–(4).

xanthine oxidase = biological target: T2, xanthine oxidase (Bos taurus, UniProt P80457); test: Fluorescence quenching of xanthine oxidase (binding affinity); set-up: species or system bovine; conditions: for Stern–Volmer constant KSV / Kd: excitation 290 nm, emission 300-400 nm; for Kd: read-out: binding constant KA (converted); for number of binding sites n: fluorescence quenching
T2 construct: Xanthine oxidase from bovine milk (EC 1.17.3.2); purchased Sigma Aldrich Co., (St. Louis, MO, USA); host or cells: bovine milk
T2 sequence (P80457 whole entry): as above
Procedure: The binding affinity between xanthine oxidase and isolated isoflavones were measured by fluorescence quenching method. For the fluorescence quenching experiments, the Trp intensities of xanthine oxidase were monitored wavelength of emission from 300 to 400 nm and excitation of 290 nm. The reaction mixture containing 180 μL of 200 mM sodium pyrophosphate/HCl (pH 7.5), 10 μL of isolated isoflavones diluted in DMSO (3.125, 6.25, 12.5, 25.0, and 50.0 μM), and 10 μL of 1 unit/mL xanthine oxidase was placed in black/flat bottom 96-well microplates. […] The quenching parameters such as the Stern–Volmer constant (KSV), binding constant (KA), and the number of binding sites (n) were determined by the Equations (5) and (6). F0 − F = 1 + KSV [Q](5) Log [(F0 − F)/F] = log KA + n log [Q]f(6)

human LDL [3] = test: TBARS assay of Cu2+ induced LDL oxidation; format: biochemical; conditions: for IC50: LDL 500 μg/mL, 10 μM Cu2+, 37 °C, 4 h; for Inhibition Rate: at 10 μM of compound, oxidized LDL induced by Cu2+
Procedure: Thiobarbituric acid reactive substances (TBARS) assay was carried out according to the previous method with minor modifications. The absorbance of a product of a reaction between thiobarbituric acid (TBA) and malondialdehyde (MDA) was measured at 540 nm. First, 220 μL of 500 μg/mL LDL in a buffer (10 mM PBS, pH 7.4), 10 μL of […], and 10 μL of different concentrations from 0 to 3 mM of isoflavones or probucol as a positive control were mixed in 1.5 mL Eppendorf tube and incubated at 37 °C for 4 h. After incubation, 100 μL of trichloroacetic acid (TCA) and 100 μL of 0.67% thiobarbituric acid (TBA)/0.05 N NaOH were added to the reaction mixture and heated in the water bath at 100 °C for 15 min. After heating, the mixture was cooled on the ice and centrifuged for 15 min at 3000 rpm. The absorbance of supernatant was measured and the IC50 values were calculated from the inhibition rate derived from Equation (1).

human LDL [4] = test: Conjugated diene formation on Cu2+ induced LDL oxidation; format: biochemical; conditions: at 10 μM of compound; 234 nm, followed for 180 min
Procedure: The formation of conjugated dienes from oxLDL was assessed by the method. The conjugated diene formation occurred in the clear bottom 96-well plate. The mixture of each well containing 230 μL of 550 μg/mL LDL in the buffer (10 mM PBS, pH 7.4) and 10 μL of 250 μM CuSO4 (final concentration: 10 μM) in the presence or absence of isoflavones or probucol as a positive control (final concentration: 10 μM) were incubated at 37 °C for 4 h. Then, the reaction was screened at 234 nm for 180 min every 5 min, continuously, incubating in the SpectraMax M3 multi-mode microplate reader. In the observed absorbance spectra, the lag time of tested samples was obtained as the endpoint indicated in the lag phase.

[5] = biological target: T1, Bovine milk xanthine oxidase (XO, EC 1.17.3.2); test: Xanthine oxidase activity (uric acid formation at 295 nm); format: biochemical; conditions: initial velocity versus enzyme amount, 0~12.5 μM of compound
human LDL [6] = test: Conjugated diene formation on Cu2+ induced LDL oxidation; format: biochemical
human LDL [7] = test: Relative electrophoretic mobility (REM) of Cu2+ oxidized LDL; format: biochemical; conditions: 10 μM compound, 10 μM CuSO4, 16 h
Procedure: The relative electrophoretic mobility (REM) of native LDL and oxidized LDL induced by Cu^2+ was performed according to the procedures of references. Before the electrophoresis, the samples containing 10 μM of CuSO4 and 10 μM of nine isoflavones or probucol were treated into LDL (500 μg/mL), then incubated for 16 h at 37 °C in dark condition. The native LDL and pretreated LDL samples loaded onto 0.5% agarose gel in TAE buffer (40 mM Tris-acetate with 1 mM EDTA, pH 8.0) and electrophoresed for 50 min at 100 V. After the electrophoresis, the gel was fixed in 40% ethanol with 10% acetic acid for 30 min, stained with 0.15% coomassie brilliant blue R250, and LDL bands visualized by using the destaining solution (methanol:acetic acid:water, 3:2:15, v/v).

[8] = Dixon plots, read-out: Ki (inhibition constant)
[9] = binding of inhibitor to free enzyme, secondary plot of slope, read-out: KI

SMILES	IC50 [1]	Ki [2, 8]	Inhibition Mode [2]	Stern–Volmer constant KSV (xanthine oxidase)	Kd (xanthine oxidase)	number of binding sites n (xanthine oxidase)	IC50 (human LDL [3])	KIS [2]	Ki [2, 9]	Reversibility of XO inhibition [5]	Inhibition Rate (human LDL [3])	Lag Time of conjugated diene formation (human LDL [4])	fold more active than genistein in TBARS assay (human LDL [3]; ratio of TBARS IC50 values versus genistein (IC50 = 30.4 μM))	Lag Time of conjugated diene formation (human LDL [6]; 0.3 μM of compound)	Lag Time of conjugated diene formation (human LDL [6]; 0.6 μM of compound)	Lag Time of conjugated diene formation (human LDL [6]; 1.25 μM of compound)	Effect on mobility of oxidized LDL (REM) (human LDL [7])
CC(C)=CCc1c(O)c(CC=C(C)C)c2occ(-c3ccc(O)c(O)c3)c(=O)c2c1O [Compound 3, 6,8-diprenylorobol]	7.8 µM	5.5 µM	Mixed type I	125300 L/mol	1.11 µM	1.4392	1.9 µM	15.5 µM	5.7 µM	reversible	98.6%	> 180 min	–	–	–	–	–
CC(C)=CCc1cc(-c2coc3cc(O)cc(O)c3c2=O)c(CC=C(C)C)c(O)c1O [Compound 4, 5,7,3′,4′-tetrahydroxy-2′,5′-di(3-methylbut-2-enyl)isoflavone]	10.9 µM	11.5 µM	Mixed type I	94970 L/mol	1.12 µM	1.4031	0.7 µM	23.0 µM	10.7 µM	–	100%	> 180 min	40 fold	120 min	160 min	180 min	–
C=CC(C)(C)C1=Cc2c(c(CC=C(C)C)c3occ(-c4ccc(O)c(O)c4)c(=O)c3c2O)OC1(C)C [Compound 5, flemiphilippinin A]	14.8 µM	12.8 µM	Mixed type I	55310 L/mol	1.38 µM	1.0018	2.7 µM and 2.8 µM	26.3 µM	12.5 µM	–	94.1%	> 180 min	–	–	–	–	–
CC(C)=CCc1c(-c2coc3cc(O)cc(O)c3c2=O)cc2c(c1O)OC(C)(C)C=C2 [Compound 6, 5,7,3′-trihydroxy-2′-(3-methylbut-2-enyl)-4′,5′-(3,3-dimethylpyrano)isoflavone]	20.4 µM	19.3 µM	Mixed type I	36450 L/mol	1.6 µM	0.8154	10.9 µM	40.0 µM	18.8 µM	–	48.8%	–	–	–	–	–	clearly reduced
CC(C)=CCc1c(O)c(CC=C(C)C)c2occ(-c3ccc(O)cc3)c(=O)c2c1O [Compound 7, 8-γ,γ-dimethylallylwighteone]	16.9 µM	11.3 µM	Mixed type I	47970 L/mol	1.5 µM	0.8836	15.2 µM	12.9 µM	7.2 µM	–	38.7%	124 min	–	–	–	–	clearly reduced
CC(C)(Sc1cc(C(C)(C)C)c(O)c(C(C)(C)C)c1)Sc1cc(C(C)(C)C)c(O)c(C(C)(C)C)c1 [Probucol, probucol, reference compound]	–	–	–	–	–	–	35.1 µM	–	–	–	16.4%	83 min	–	–	–	–	–

Further compounds by falling Ki [2, 8], results first:

IC50 [1]	Ki [2, 8]	Inhibition Mode [2]	Stern–Volmer constant KSV (xanthine oxidase)	Kd (xanthine oxidase)	number of binding sites n (xanthine oxidase)	IC50 (human LDL [3])	KIS [2]	Ki [2, 9]	Reversibility of XO inhibition [5]	SMILES	Inhibition Rate (human LDL [3])	Lag Time of conjugated diene formation (human LDL [4])	fold more active than genistein in TBARS assay (human LDL [3]; ratio of TBARS IC50 values versus genistein (IC50 = 30.4 μM))	Lag Time of conjugated diene formation (human LDL [6]; 0.3 μM of compound)	Lag Time of conjugated diene formation (human LDL [6]; 0.6 μM of compound)	Lag Time of conjugated diene formation (human LDL [6]; 1.25 μM of compound)	Effect on mobility of oxidized LDL (REM) (human LDL [7])
36.4 µM	35.1 µM	Mixed type I	9300 L/mol	4.11 µM	0.6736	14.6 µM	49.0 µM	35.2 µM	–	COc1cc(-c2coc3c(CC=C(C)C)c(O)c(CC=C(C)C)c(O)c3c2=O)ccc1O [Compound 9, flemingsin]	40.3%	128 min	–	–	–	–	clearly reduced
34.7 µM	33.9 µM	Mixed type I	9870 L/mol	2.14 µM	0.6889	24.6 µM	52.4 µM	35.1 µM	–	CC(C)=CCc1c2c(c3occ(-c4ccc(O)cc4)c(=O)c3c1O)C=CC(C)(C)O2 [Compound 8, osajin]	25.4%	108 min	–	–	–	–	–
25 ± 2.3 µM	11.5 µM	competitive inhibitor	18450 L/mol	1.99 µM	0.7268	30.4 ± 1.5 µM	–	–	–	O=c1c(-c2ccc(O)cc2)coc2cc(O)cc(O)c12 [Compound 1, genistein]	20.3%	80 min	–	–	–	–	–
12.4 µM	11.1 µM	Mixed type I	77550 L/mol	1.33 µM	1.0359	2.4 µM	28.1 µM	10.8 µM	–	CC(C)=CCc1c2c(c(O)c3c(=O)c(-c4ccc(O)c(O)c4)coc13)C=CC(C)(C)O2 [Compound 2, auriculasin]	95.9%	> 180 min	–	–	–	–	–
